The results in this text go back to patent publication US7572762B1, “Materials and methods relating to the induction of apoptosis in target cells” (University of Dundee, priority 1998, dated 2009).

Series [1] has as its system p53 null lung carcinoma (H1299) cells. As to the kind of experiment: FACS analysis of apoptosis and cell cycle, H1299 cells. It is filed as cell-based, human. From the text: FIG. 8 illustrates a representative FACS (fluorescence activated cell sorting) profile obtained from the experiment indicated; horizontal axis denote DNA content of the cells and the vertical axis the numbers of cells that have a particular DNA content. Apoptotic cells have a subnormal DNA content and are represented as a peak to the extreme left of the profile (sub-G1); viable cells are represented in G1 and G2/M peaks which correspond to these phases of the cell cycle. Where percentages are provided, these indicate cells in sub-G1, G1 or G2/M phases, as indicated, as a percent of the total cell population. In all cases, the existence of apoptotic cells was confirmed by additional means such as microscopic examination.
Bar charts show quantitative data obtained from representative FACS analyses for the experiments indicated. In all cases, numbers of cells that are apoptotic (sub-G1), as a percentage of the total cell population, are depicted by diagonal-hatched bars; numbers of cells that are viable and in G1 (G1/S) phase of the cell cycle, as a percentage of the total cell population, are depicted by stippled bars; viable cells in G2/M phase of the cell cycle are depicted by horizontal-hatched bars.
The experiments described in the examples were performed using methods well-known to those skilled in the art and documented in standard text books in the field (e.g. Chapters 4 and 5, Methods in Cell Biology Vol 46 editors L. M. Schwartz and B. A. Osborne, Academic Press Ltd, London 1995 provides inter alia details on detection of apoptosis and cell division cycle arrest by FACS).

Series [2] concerns human colon carcinoma (HT29) cells. Put plainly: FACS analysis of apoptosis, HT29 cells. It is filed as cell-based.
In series [3] the test system is control B lymphoid (Daudi) cell line. Put plainly: FACS analysis of control B lymphoid cells. It is filed as cell-based. The conditions noted are these: for apoptotic (sub-G1) cells: 48 hours, untreated basal apoptosis approximately 50%; for effect on control B cells: rimcazole 0.1 mM, 0.01 mM, 0.001 mM (FIG. 11c), haloperidol not shown.
For series [4], the system named is L428 Hodgkins lymphoma cells. Put plainly: FACS analysis of apoptosis and cell cycle, L428 cells. It is filed as cell-based, human. The conditions noted are these: 48 hours.
For another series, the system named is Saos-2::p53^teti cells. Put plainly: FACS analysis of osteosarcoma cells with tetracycline-inducible p53. It is filed as cell-based, human.
In series [5] the test system is MDA MB 468 human breast carcinoma xenografts. As to the kind of experiment: Human breast carcinoma xenograft growth in athymic mice. In kind it is in vivo. As to conditions: 10 mg/kg/day intraperitoneal, day 45; all or selected tumours.
Series [6] relates to 293 cells (transformed kidney epithelial cells). Put plainly: FACS (propidium iodide) analysis of apoptosis, 293 cells. It is filed as cell-based, human. The arrangement: cell population induced to apoptose: dose or concentration left out as unconfirmed.
For series [7] the following is noted: mouse, in vivo.
Protocol: All drugs were dissolved in sterile water for injection and frozen as ˜2 ml aliquots, except haloperidol which was stored as a powder at RT and made up fresh each day in 45% cyclodextrin. The mice were housed in filter boxes in Maximiser laminar flow cabinets and fed sterilized food and water. All procedures were carried out in class 1 laminar flow hoods using sterile equipment and reagents. The mice were dosed daily by an intraperitoneal route (combined therapies dosed simultaneously) and body weights and tumour measurements recorded at frequent intervals.
The subject of another series is MCF 7::p53^val135 cells. As to the kind of experiment: Phase micrographs of MCF 7 cells with temperature sensitive p53. In kind it is cell-based, human.
Another series deals with MDA MB 468 cells. As to the kind of experiment: FACS analysis of hormone insensitive breast cancer cells. In kind it is cell-based, human.
The subject of another series is MCF7 cells. As to the kind of experiment: FACS analysis of hormone responsive breast carcinoma cells. It is filed as cell-based, human. The conditions noted are these: rimcazole 0.001 mM, 48 hours.
In a further series the test system is MDA MB 231 cells. Put plainly: FACS analysis of hormone unresponsive breast carcinoma cells. In kind it is cell-based, human. The conditions noted are these: rimcazole 0.001 mM, 48 hours.
The subject of a further series is wild-type Saos-2 cells. Put plainly: Wild-type Saos-2 cells lacking p53. The conditions noted are these: low dose rimcazole combined with doxycycline. In kind it is cell-based, human.

On to `COc1ccc2c(c1OC)C(=O)O[C@@H]2[C@H]1c2c(cc3c(c2OC)OCO3)CCN1C` (relative stereo) [noscapine, (S-(R*,S*))-6,7-Dimethoxy-3-(5,6,7,8-tetrahydro-4-methoxy-6-methyl-1,3-dioxolo(4,5-g)isoquinolin-5-yl)-1(3H)-Isobenzofuranone], for which, in [1] (10^−4M combined with TNF 5 ng/ml), the “apoptotic cells, % of total cell population” value came out at 74%. Besides, in [1] (10^−4M, 48 hours, alone), the apoptotic cells is 39%. Further, in [2] (10^−4M on its own), the “apoptosis, % of cell population” value is on record as 67%. For the same molecule, the apoptosis result in series [2] (10^−4M with TNF added) was “additional increase”. For the same molecule, in series [3], the “apoptotic (sub-G1) cells” value is on record as “approximately 50%”. Moreover, the apoptosis induction result in series [4] (10^−4M) is “majority of the cell population”. In series [4] (10^−5M), the apoptosis induction entry is reported as “substantial amount of apoptosis” and the “mitotic arrest (G2/M cells)” value is reported as “increase in percentage of G2/M cells”.

Regarding `C[C@H]1c2cccc(O)c2C(=O)C2=C(O)[C@]3(O)C(=O)C(C(N)=O)=C(O)[C@@H](N(C)C)[C@@H]3[C@@H](O)[C@@H]21` [doxycycline], the “cells undergoing apoptosis, % of total population” value with Saos-2::p53^teti cells (low dose doxycycline alone) was 4%.

`O=C(CCCN1CCC(O)(c2ccc(Cl)cc2)CC1)c1ccc(F)cc1` [haloperidol, 4(4-(4-chlorophenyl)-4-hydroxy-1-piperidinyl)-1-(4-fluorophenyl)-1-Butanone]: the results for the apoptosis in series [1] (haloperidol 10^−5M alone) and in series [1] (haloperidol 10^−5M combined with TNF) were 4% and 59%, respectively. In addition, the “tumour growth inhibition (tumour weights at excision)” value in [5] is given as “growth inhibition”. Also, the results for the apoptotic cells in [6] (haloperidol 10^−5 M combined with transfected RelA(p65)) and in series [6] (haloperidol 10^−5 M on its own) were 47% and 2-3%, respectively. Moreover, the entries for the “sub-G1 apoptotic cells, % of total cell population” value in series [6] (haloperidol without IκB (FIG. 9c)) and in series [6] (non-degradable mutant IκB plasmid transfected prior to haloperidol) were 58% and 5%, respectively. For the same molecule, the “ill effects / toxicity in mice” value in series [7] is listed as “transient sleepiness”. The “effect on control B cells” value in [3] was “unaffected”.

For `Oc1ccc2c3c1O[C@H]1c4[nH]c5ccccc5c4C[C@@]4(O)[C@@H](C2)N(CC2CC2)CC[C@]314` [naltrindole], in [1], the “G2/M cell cycle arrest” value is recorded as “appearance of a G2/M peak” and the induction of apoptosis result is given as “marked induction of apoptosis”. In [6], the induction of death result is recorded as “fails to induce death” and the “induction of sub-G1 (apoptotic) cells” value is “marked induction”. Besides, the “apoptotic (sub-G1) cells” value in series [3] was “approximately 50%”. In series [4] (10^−4M), the apoptosis induction entry is given as “majority of the cell population”. For the same molecule, in series [4] (10^−5M), the apoptosis induction entry was “substantial amount of apoptosis” and the “mitotic arrest (G2/M cells)” value is recorded as “increase in percentage of G2/M cells”.

As to `C[C@@H]1CN(CCCn2c3ccccc3c3ccccc32)C[C@H](C)N1` [rimcazole, cis-9-[3-(3,5-Dimethyl-1-piperazinyl)propyl]-9H-carbazole], the values for the apoptosis (in series [1] (rimcazole 0.01 mM in combination with trans-U50488 0.1 mM); in the series with MCF7 cells) were 67% and 6%, respectively. Moreover, the “apoptosis, % of cells” value stood at 4% in [1] (sublethal dose alone) and 61% in [1] (sublethal dose of rimcazole with sublethal dose of TNF). The “tumour growth inhibition (tumour weights at excision)” value in series [5] is on record as “significant tumour growth inhibition”. For the same molecule, the “cell population induced to apoptose” value was “approximately 5%” with Saos-2::p53^teti cells (rimcazole 100 nM alone), 1% in series [6] (rimcazole alone) and 75% in series [6] (rimcazole in combination with transiently overexpressed p53). The apoptotic cells in the series on Saos-2::p53^teti cells (rimcazole 100 nM combined with doxycycline 0.02 μg/ml) is given as 85%; in the series with MDA MB 468 cells (0.001 mM, approximately 48 hours), 16%. In addition, the “apoptosis (phase micrographs)” value is recorded as “marked induction of apoptosis” in the series on MCF 7::p53^val135 cells (32 degC (p53 wild-type conformation), e.g. 0.001 mM); “largely unaffected” in the series with MCF 7::p53^val135 cells (37 degC); “Apoptosis is induced” with MCF 7::p53^val135 cells (37 degC (p53 largely inactive), 0.1 mM). Besides, in series [3], the “effect on control B cells” value is on record as “unaffected”. Also, in the series with MDA MB 468 cells (0.01 millimoles per liter, approximately 48 hours), the “apoptosis, % of cell population” value was 79%. Also, the “cells induced to apoptose” value in the series on MDA MB 468 cells (rimcazole 0.001 mM combined with cis-U50488 0.1 mM) amounted to 83%. Further, the figures for the “proportion of G2/M cells” value in the series with MCF7 cells and in the series on MDA MB 231 cells were 32% and 62%, respectively. Also, in the series on MDA MB 231 cells, the “apoptotic cells, % of total cell population” value stood at 25%. Moreover, the “effect of combination on apoptosis” value with wild-type Saos-2 cells was “no effect”.

B1: proenkephalin: proenkephalin destined for the secretory pathway, overexpressed from transiently transfected plasmid DNA (protein, UniProt P01210 1-267, looked up)
chain: MARFLTLCTWLLLLGPGLLATVRAECSQDCATCSYRLVRPADINFLACVMECEGKLPSLKIWETCKELLQLSKPELPQDGTSTLRENSKPEESHLLAKRYGGFMKRYGGFMKKMDELYPMEPEEEANGSEILAKRYGGFMKKDAEEDDSLANSSDLLKELLETGDNRERSHHQDGSDNEEEVSKRYGGFMRGLKRSPQLEDEAKELQKRYGGFMRRVGRPEWWMDYQKRYGGFLKRFAEALPSDEEGESYSKEVPEMEKRYGGFMRF
modifications: full-length
notes: proenkephalin destined for the secretory pathway, overexpressed from transiently transfected plasmid DNA
For the molecule B1, in series [6] (alone, 48 hours, TNF 5 ng/ml, proenkephalin 5 μg plasmid DNA (secretory) transfected), the induction of apoptosis entry is “no induction of apoptosis”. Also, the “reduction in percentage of sub-G1 (apoptotic) cells” value in [6] (proenkephalin + TNF, co-transfection of 5 μg IκB plasmid) is reported as “greater than 50%”. The “percentage of apoptotic (sub-G1) cells” value in series [6] (proenkephalin overexpressed in combination with TNF 5 ng/ml) is reported as “marked increase”.
